From patent US11707511B2, “Vaccine compositions and methods of using the same” (The Board of Supervisors of Louisiana State University and …, priority 2017, dated 2023) come the findings set out here.

“Also recorded” adds a separate entry of the source.

The test system of test [1] is C. glabrata CBS138 (ATCC 2001). Kind of test: Peptide-vaccinated, cyclophosphamide-immunosuppressed mice challenged with C. glabrata. The format is in vivo. The note with it: FIG. 4; 1×10^7 cells/mouse. As for the experimental part:
(§1) Active Immunizations with peptide pulsed dendritic cells. […] It allows us to perform rapid throughput evaluation of candidate short peptides. When protective double universal peptide conjugate(s) become identified by this study, immunization approaches suitable for human use will be applied in further studies. All active vaccinations were conducted as previously described (6,7,9). DCs were pulsed in vitro with universal peptide as described before with minor modification by totally removing CFA for last booster (6). Briefly, DCs in culture were pulsed with the peptide antigen (1 μM) on day 6. On day 7, PGE2 (10^-7M) was added along with LPS (2 μg/ml, Sigma) for 24 h to induce DC maturation. On day 9, antigen-pulsed DCs were washed extensively and […] in 200 μl DPBS were given by intraperitoneal (i.p.) route as the priming dose to mice. The mice were boosted i.p. at day 14 and day 28 with fresh antigen-pulsed DCs without adjuvant.
Peptide vaccinated mice were also challenged with C. glabrata, which has emerged as the second most common cause of invasive candidiasis in the US. Since C. glabrata is not lethal for wild-type mice, immunosuppression in vaccinated mice were induced by cyclophosphamide (50 mg/kg) treatment for two weeks, and then mice were challenged with live C. glabrata cells [CBS138 (ATCC 2001), 1×10^7 cells/mouse]. […] CFU experiments will be performed and completed. […]

Test [2] can be described thus: Induction of specific anti-peptide antibody responses in immunized mice. The format is in vivo. The following applies: BALB/c mice; peptide-pulsed DC; data not shown. An excerpt: (§2) To perform rapid throughput evaluation of peptide vaccine candidates, immunizations were done by use of the similar antigen-pulsed DC based vaccine strategy with modification by totally removing CFA from vaccine formula. Fba peptide was used as positive control.
The double chimeric peptide conjugate vaccines have been tested for their abilities to induce specific anti-peptide antibodies and protective immunity against the disease caused by C. albicans. […] The enhancement in vaccine efficacy was evidenced by both increased survival and reduced or non-detectable fungal burden (colony forming units, CFUs) in kidneys of animals.

The test system of test [3] is C. albicans. Briefly: Active immunization with peptide-pulsed dendritic cells, disseminated candidiasis caused by C. albicans in mice. The format is in vivo, Candida albicans. The following applies: for protection against disseminated candidiasis caused by C. albicans: FIG. 2, antigen-pulsed DC vaccine without CFA; for CFUs in kidneys as compared to controls: FIG. 2 B and D. The protocol: as §1
Table 2 lists universal peptide vaccines that induced protection against disseminated candidiasis caused by C. albicans in mice. The universal peptide vaccines listed in Table 1 are expressed at high homology by all analyzed medically important Candida species in addition to C. albicans (see details at Table 2). By dendritic cell (DC) based immunization approach as described herein, each of the universal peptide vaccines was able to protect mice against disseminated candidiasis caused by C. albicans, with the survival rate 80-100% up to 80-120 days post challenge.
as §2

Test [4] has as its system C. tropicalis (ATCC 20336). Briefly: Peptide-vaccinated mice challenged with lethal dose of C. tropicalis. The format is in vivo. The note with it: for survival: FIG. 3A, i.v. challenge 1×10^6/mouse, up to 80 days; for live fungal cells (CFU) in kidneys as compared to controls: FIG. 3B, p<0.001. As for the experimental part: as §1
Peptide-vaccinated mice were challenged with lethal dose of live C. tropicalis cells (ATCC 20336; i.v. challenge dose: 1×10^6/mouse).

In test [5] the test system is C. auris AR-0386. Kind of test: Passive transfer of mAbs or two mAbs in combination in A/J mouse model of invasive C. auris infection. The following applies: Table 19; A/J strain mice. The format is in vivo, Candida auris. As for the experimental part:
A. Complement protein C5-defecient A/J mice were treated with one of the five mAb or with DPBS as a vehicle control. The following day, mice were challenged with 1×10^8 C. auris cells/100 ul DPBS dose per mouse. […] B. Fungal burdens in the kidneys (top), heard (center), and brain (bottom).
Identified protective mAbs were obtained by use of standard hybridoma technique and purified by use of protein A/G. A/J mice were given an i.p. dose of either single mAb or two mAbs in combination 24 hours before hematogensous challenge with a lethal dose (2×108) of C. auris AR-0386 live cells. Mice received either 9G2F5 alone or 6H1G8 alone or 9F2G5 and 3H7E3 in combination had 40% survival rate respectively, with prolonged survival as compared to control animals that received DPBS buffer control.
Evaluation and validation of a panel of peptide-specific monoclonal antibodies (mAbs) as a passive immunization strategy protect against invasive C. auris infection in established A/J mouse model of human disease.
The monoclonal antibodies used in this experiment were: • 6H1G8 (IgG2b), α-Hwp1 (Hyphal wall protein) • 3E2G2 (IgG2b), α-Fba (Fructose bisphosphate aldolase) • 10E7E2 (IgG1), α-GPV-P3 (General peptide vaccine 3 from Phosphoglycerate kinase) • 9F2G5 (IgG2a), α-Pgk1 (Phosphoglycerate kinase) • 3H7E3 (IgG1), α-Met6 (Methyltetrahydropteroyltriglutamate)

The subject of test [6] is C. albicans 3153A. Briefly: Passive transfer of mAbs or mAb cocktails i.p. before lethal i.v. challenge, mouse model of human disseminated candidiasis. The format is in vivo, Candida albicans. The following applies: Table 14. As for the experimental part: Passive transfer of MAbs by intraperitoneal (i.p.) route. The preventive effect of peptide-specific mAbs listed in Table 3 and Table 4 in naïve mice was examined by passive transfer experiments. […] For testing, mice received 0.5 ml of each mAb or 1 ml of two mAbs in combination (0.5 ml of each) intraperitoneally. […] The negative control materials tested in mice were single mAb or DPBS. Control mice received 0.5 ml of the DPBS diluents or single mAb treatment. For each condition, 6- to 8-week-old female BALB/c mice (NCI) were given 0.5 ml of test mAb, or 1 ml two mAb cocktails or control materials intraperitoneally, followed 4 h later by 0.1 ml intravenously of defined lethal dose of yeast cells per milliliter of DPBS. Mice were divided into groups with five mice each and three independent experiments were carried out. In some experiments, mice were given the same dose of mAbs or control materials on every other day post-challenge for two weeks, as compared to the protective efficacy of mAb in combinations. All mice were sacrificed on day 50. For animal groups that were challenged non-albicans candida species, determined optimal challenge doses were applied for each candida strain.
The hybridoma clones that produce the universal peptide specific mAbs listed above were generated from mice vaccinated with peptide-pulsed dendritic cell (DC) preparation as described previously (6). The isotype of mAb was determined with a Mouse Monoclonal Antibody Isotyping Kit (Pierce, USA). […] In detail, BALB/c mice were given an i.p dose of each mAb four hours before hematogenous challenged with a lethal dose of C. albicans3153A cells. […] Importantly, passive protection was prevented by removal of the mAbs by absorption with Candida cells before transfer, which provided strong additional evidence for the protection being due to the mAb.
The three cell wall proteins were selected because of expression during human candidiasis and cell wall association, and included fructose-bisphosphate aldolase (Fba); methyltetrahydropteroyltriglutamate-homocysteine methyltransferase (Met6); hyphal wall protein-1 (Hwp1). The hybridoma clones listed at Table 5, which produce the peptide specific mAbs, were generated from mice vaccinated with peptide-pulsed dendritic cell (DC) preparation as described previously (6). The isotype of mAb was determined with a Mouse Monoclonal Antibody Isotyping Kit (Pierce, USA). […] Importantly, passive protection was prevented by removal of the mAbs by absorption with Candida cells before transfer, which provided strong additional evidence for the protection being due to the mAb).
The preventive effect of each universal peptide-specific mAb was examined by passive transfer experiments. […] For testing, 5 mice of each tested group received 0.5 ml of each mAb intraperitoneally. The negative control materials tested in mice were mAbs absorbed with C. albicans yeast cells (3153A) and DPBS. Control mice received 0.5 ml of the DPBS diluents or adsorbed mAb solution. For each condition, 6- to 8-week-old female BALB/c mice (NCI) were given 0.5 ml of test mAb, or control materials intraperitoneally, followed 4 h later by 0.1 ml intravenously of a suspension containing lethal dose of Candida cells per milliliter of DPBS. Mice were divided into groups with five mice each and three independent experiments were carried out. We have developed neutropenic murine models of disseminated infection by C. glabrata, C. tropicalis and C. parapsilosis. To induce neutropenia, naïve mice received a 200 mg/kg dose of cyclophosphamide (CY) by i.p. on day −3. Prolonged neutropenia were maintained for 30-50 days by giving each animal a 150 mg/kg dose of CY by i.p. every 10 days after infection.

Test [7] has as its system C. auris. Kind of test: Passive transfer of mAbs in cyclophosphamide-immunosuppressed B6.129X1Elane mice, disseminated infection by C. auris. The format is in vivo, Candida auris. The following applies: 2×108 C. auris i.v. The protocol: An immunocompromised murine model of disseminated infection by C. auris was developed. To induce immunosuppression, Jackson B6.129X1Elane mice received a 200 mg/kg dose of cyclophosphamide (CY) by i.p. on day −3. Prolonged immunosuppression was maintained for 30 days by giving each animal a 200 mg/kg dose of CY by i.p. every 10 days after infection. On day 0, mice of different experimental groups were intravenously infected with 2×10^8 viable C. auris yeast cells.
The preventive effect of peptide-specific mAbs, for example 7H6A2 and 1D4H5, and combinations thereof, for example 7H6A2+1D4H5, was examined by passive transfer experiments. Each mAb was appropriately diluted in DPBS to give a 40,000-100,000 ELISA titer against each corresponding specific peptide coated on the plate. For testing, mice received 0.5 ml of each mAb or 1 ml of two mAbs in combination (0.5 ml of each) intraperitoneally. Control mice received 0.5 ml of the DPBS diluents.
Protective mAbs protect immunocompromised mice against disseminated infection by Candida auris: The possibility of using passive mAb immunotherapy in immunocompromised mice against disseminated candidiasis by C. auris. The protective effect of mAb 7H6A2, 1D4H5 or these two mAbs in combination against the disease in immunocompromised mice was examined by passive transfer experiments (FIG. 14). Mice received either mAb 7H6A2 or 1D4H5 or the two mAbs in combination had reduced CFUs in kidneys (FIG. 14A) and in brains (FIG. 14B) as compared with control mice.

In the case of “FbaU1: putative universal Fba peptide; Table 17 equates it with Fba3 (SEQ ID NO: 36) but tested as a separate peptide (FAIPAINVTSSSTVVAALE)”, in test [1], the “protection against disseminated candidiasis caused by C. glabrata” value is listed as “high degree protection”. Also, in test [2], the specific antibody responses entry is on record as “able to induce specific antibody responses”. Further, in test [3], the “protection against disseminated candidiasis caused by C. albicans” value is on record as “good protective responses; also recorded: high degree protection” and the “CFUs in kidneys as compared to controls” value is listed as “reduced or non-detectable CFUs”. For the same molecule, in test [4], the survival was 100% and the “live fungal cells (CFU) in kidneys as compared to controls” value is reported as “significantly reduced live fungal cells”.

YDQVLDLSLLFNAIP [Met6-2]: the “protection against disseminated candidiasis caused by C. glabrata” value in test [1] is reported as “high degree protection”. Moreover, the specific antibody responses result in test [2] is on record as “able to induce specific antibody responses”. For the same molecule, in test [3], the “protection against disseminated candidiasis caused by C. albicans” value was “good protective responses; also recorded: high degree protection” and the “CFUs in kidneys as compared to controls” value was “reduced or non-detectable CFUs”. In test [4], the survival came to 80% and the “live fungal cells (CFU) in kidneys as compared to controls” value is on record as “significantly reduced live fungal cells”.

B1: 7H6A2: IgG2b mAb of hybridoma 7H6A2, specific for Met6 peptide (antibody)
heavy: QIQLVQSGPELKKPGETVKISCKASGYTFTDFSMHWVKQAPGKGLKWMGWINTETVEPTYADDFKGRFAFSLETSASTAYLQINNLKNEDTATYFCSRVSYDGYYGDFAMDYWSQGTSVTVSSAKTTAPSVYPLAPVCGDTTGSSVTLGCLVKGYFPEPVTLTWNSGSLSSGVHTFPAVLQSDLYTLSSSVTVTSSTWPSQSITCNVAHPASSTKVDKKIEPRGPTIKPCPPCKCPAPNLLGGPSVFIFPPKIKDVLMISLSPIVTCVVVDVSEDDPDVQISWFVNNVEVHTAQTQTHREDYNSTLRVVSALPIQHQDWMSGKEFKCKVNNKDLPAPIERTISKPKGSVRAPQVYVLPPPEEEMTKKQVTLTCMVTDFMPEDIYVEWTNNGKTELNYKNTEPVLDSDGSYFMYSKLRVEKKNWVERNSYSCSVVHEGLHNHHTTKSFSRTPGK
light: DIQMTQTTSSLSASLGDRVTISCRASQDISNYLNWYQQKPDGTVKLLIYYTSRLHSGVPSRFSGSGSGTDYSLTISNLEQEDIATYFCQQGNTLPWTFGGGTKLEIKRADAAPTVSIFPPSSEQLTSGGASVVCFLNNFYPKDINVKWKIDGSERQNGVLNSWTDQDSKDSTYSMSSTLTLTKDEYERHNSYTCEATHKTSTSPIVKSFNRNEC
On to B1, for which, in test [5], the “Protection against C. auris” value is recorded as 80-100% and the “Protection against C. auris (grade word)” value is listed as “High”. Besides, the “Protection of adsorbed mAb” value in test [6] (mAb removed by absorption with Candida cells before transfer) is reported as “None”. In test [6] (single mAb, C. albicans), the Protection entry is given as “(80-90%)” and the “Protection (grade word)” value was “High”. In addition, the “CFUs in kidneys as compared with control mice” value in test [7] (FIG. 14A) is given as “reduced CFUs”. The “CFUs in brains as compared with control mice” value in test [7] (FIG. 14B) is reported as “reduced CFUs; also recorded: no CFU detected”.
